The target of series [1] is human EP4 receptor (Homo sapiens, UniProt P35408). Briefly: Cell-based cAMP TR-FRET assay on EP4 (agonist PGE2). Conditions: selectivity index EP4 KB/EP2 KB, fold. (In general: In TR-FRET formats the signal depends on donor and acceptor labels being close together.)
Series [2] has as its target human IP receptor (Homo sapiens, UniProt P43119). The series is described as follows: Cell-based cAMP TR-FRET assay on IP (agonist iloprost). The following applies: selectivity index IP KB/EP2 KB, fold.
Series [3] in a line: Kinetic aqueous solubility in PBS by nephelometry.
For series [4] the following is noted: mouse.
Series [5] in a line: Metabolite investigation in mouse liver microsomes. It is filed as in vitro ADME. Conditions: 2a after 5 minutes; 3 after 20 minutes. (Microsomes from liver hold many membrane-bound enzymes, among them those of drug oxidation.)
Series [6] can be described thus: Mouse liver microsomal (MLM) stability. Conditions: 1 μM compound.
Series [7] is described as follows: in vivo.
Series [8] has as its system C6glioma cells. Conditions: rat.
For series [9] the following is noted: pH 7.4.
Series [10] in a line: Solubility in simulated gastric fluid (SGF) by nephelometry.
For series [11] the following is noted: mouse. The source holds these as a separate data set.
Series [12] concerns MDR1-MDCK cell line.
A short description of series [13]: physchem. The following applies: water, thermodynamic from solid.
Series [14] in a line: in vitro. The following applies: mouse, pooled liver microsomes.
The nature of series [15]: physchem. Conditions: pH 2, simulated gastric fluid, kinetic from dmso stock.
The target of series [16] is T1, human EP2 receptor (Homo sapiens, UniProt P43116).
T1 construct: expressed in transfected cells
T1 sequence (P43116 whole entry): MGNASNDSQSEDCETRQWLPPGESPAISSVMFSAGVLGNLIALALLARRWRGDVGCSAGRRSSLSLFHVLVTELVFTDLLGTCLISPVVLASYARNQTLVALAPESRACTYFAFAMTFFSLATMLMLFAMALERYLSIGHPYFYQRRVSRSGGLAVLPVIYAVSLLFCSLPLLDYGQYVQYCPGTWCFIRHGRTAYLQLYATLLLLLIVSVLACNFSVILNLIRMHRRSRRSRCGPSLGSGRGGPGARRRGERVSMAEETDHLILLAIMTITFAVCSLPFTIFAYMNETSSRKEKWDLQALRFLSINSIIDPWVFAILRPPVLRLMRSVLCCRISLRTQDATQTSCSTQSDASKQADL
The series is described as follows: Cell-based cAMP TR-FRET assay, Schild KB on EP2. Conditions: Schild KB; agonist PGE2; antagonist concentration 1 μM; C6G cells expressing human EP2.

≈ marks a conversion by molar mass, not a printed value. Read-outs that look alike come from different tables or passages of the source.

Sequence of human EP4 receptor (P35408 whole entry): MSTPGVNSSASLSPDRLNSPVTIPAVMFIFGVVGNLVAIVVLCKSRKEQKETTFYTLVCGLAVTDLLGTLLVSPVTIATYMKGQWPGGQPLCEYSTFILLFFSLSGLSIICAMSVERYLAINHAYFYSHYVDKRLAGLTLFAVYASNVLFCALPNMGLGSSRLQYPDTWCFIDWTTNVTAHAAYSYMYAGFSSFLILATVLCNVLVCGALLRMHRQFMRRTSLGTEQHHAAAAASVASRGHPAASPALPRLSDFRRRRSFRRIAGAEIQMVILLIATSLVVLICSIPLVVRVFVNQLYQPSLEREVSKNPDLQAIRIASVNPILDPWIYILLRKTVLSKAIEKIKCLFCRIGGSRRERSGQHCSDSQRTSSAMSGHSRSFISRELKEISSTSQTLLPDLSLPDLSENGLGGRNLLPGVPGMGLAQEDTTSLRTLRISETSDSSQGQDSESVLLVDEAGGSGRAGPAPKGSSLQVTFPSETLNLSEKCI
Sequence of human IP receptor (P43119 whole entry): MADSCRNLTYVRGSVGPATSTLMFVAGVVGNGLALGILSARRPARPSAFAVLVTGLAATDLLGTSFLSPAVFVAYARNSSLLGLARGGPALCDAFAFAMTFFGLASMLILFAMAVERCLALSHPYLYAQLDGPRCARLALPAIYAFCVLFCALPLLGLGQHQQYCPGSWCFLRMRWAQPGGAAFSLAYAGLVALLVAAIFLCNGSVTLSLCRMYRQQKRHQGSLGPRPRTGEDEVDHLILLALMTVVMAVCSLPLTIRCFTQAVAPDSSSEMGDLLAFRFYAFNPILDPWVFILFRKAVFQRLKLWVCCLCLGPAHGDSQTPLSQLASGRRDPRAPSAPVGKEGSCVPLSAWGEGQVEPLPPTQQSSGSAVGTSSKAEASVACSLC

As for `Cc1[nH]c2ccccc2c1CCNC(=O)c1cnc(Nc2cc(F)ccn2)nc1` [Compound 20c, 2-((4-Fluoropyridin-2-yl)amino)-N-(2-(2-methyl-1H-indol-3-yl)ethyl)pyrimidine-5-carboxamide], the “S.I (EP4/EP2)” value in [1] is recorded as more than 1500. For the same compound, the “S.I (IP/EP2)” value in [2] was more than 1500. Moreover, the “Aqueous Solubility” value in [3] (PBS buffer (pH 7.4) with 1% DMSO, nephelometry) came out at 15 µM. For the same compound, in series [4], the stability in vivo result was “unstable in vivo”.
For the compound `Cc1[nH]c2ccccc2c1CCNC(=O)c1ccc(-c2nnn[nH]2)cc1` [Compound 3], the “metabolites after incubation in mouse liver microsomes” value in series [5] is “did not produce any fragments even after 20 minutes of incubation”. The MLMt1/2 in series [6] (0.5 mg/mL liver microsomes (compounds 1 and 3)) is listed as more than 60 min. In series [7] (mouse, po, 10 mg/kg), this compound gave a half-life of more than 6 h.
The compound `COc1cccc2c1C(=O)c1c(O)c3c(c(O)c1C2=O)C[C@@](O)(C(=O)CO)C[C@@H]3O[C@H]1C[C@H](N)[C@H](O)[C@H](C)O1` [doxorubucin, reference compound] returned a CC50 in series [8] of 900 nM.
For `Cc1cc(C)nc(Nc2ncc(C(=O)NCCc3c(C)[nH]c4ccccc34)cn2)c1` [Compound 20o, 2-((4,6-Dimethylpyridin-2-yl)amino)-N-(2-(2-methyl-1H-indol-3-yl)ethyl)pyrimidine-5-carboxamide], the “Aqueous Solubility” value in series [9] is 15 µM. Besides, the “Aqueous solubility of corresponding HCl salt in SGF” value in [10] (HCl salt, simulated gastric fluid pH 2.0, nephelometry) is more than 250 µM. The solubility in series [10] (pH 2, simulated gastric fluid, kinetic from dmso stock) was more than 100 µM. The compound also gave a bioavailability in series [7] (mouse, po) of 25%. This compound also came in with an MLMt1/2 in [11] of 17 min. The “substrate of efflux pumps” value in series [12] is reported as “not the substrate of efflux pumps”. In addition, in [12] (dog), the “Permeability across MDR1-MDCK cell line, A-B” value was “A-B: 13.2 × 10^−6 cm/s” and the “Permeability across MDR1-MDCK cell line, B-A” value is “B-A: 22.2 × 10^−6 cm/s”. The CC50 in series [8] is more than 50000 nM.
Regarding `Cc1cc(C)nc(Nc2ncc(C(=O)NCCc3c(C)[nH]c4c(F)cccc34)cn2)c1` [Compound 24aa, 2-((4,6-dimethylpyridin-2-yl)amino)-N-(2-(7-fluoro-2-methyl-1H-indol-3-yl)ethyl)pyrimidine-5-carboxamide], the solubility in series [13] is 1100 to 1200 µg/mL (≈ 2630 to 2870 µM); in series [15] it was more than 250 µM; in [3] (PBS with 1% DMSO, pH 7.4, aqueous buffer, kinetic from dmso stock), 150 µM (≈ 62.8 µg/mL). The compound further gave a solubility at 24 h in series [13] of 2640 µM (≈ 1100 µg/mL). This compound showed a half-life at 1 μM in [14] of 0.383 h. In [6] (0.125 mg/mL liver microsomes (Table 7)), this compound displayed an MLMt1/2 of 23 min. Also, in series [7] (C57BL/6, mouse), the Kp at 0.5 h came to 0.4. For the same compound, in series [7] (mouse, ip, 20 mg/kg), the half-life was 5.4 h. In [16], the Kb was determined as 1.7 nM.

What is called Aqueous Solubility is the concentration that dissolves in the medium under given conditions. Usually half-life stands for how long it takes for the measured level to halve. High values mean slow loss, low ones fast loss. A word on the CC50: it is the concentration at which the toxic effect on the cells reaches its halfway point. Higher therefore signals lower toxicity to the cells. What is called solubility is the dissolved amount per volume that the medium holds. Low readings indicate a poorly soluble substance, high ones a readily soluble substance. Usually bioavailability stands for the share of a dose that reaches the circulation, judged against a reference dose that is usually intravenous. For orientation: Kb means the equilibrium dissociation constant of an antagonist, usually derived from a functional assay. Low readings indicate higher antagonist affinity, high ones lower antagonist affinity.
